Measurements as given in patent publication US20120053122A1, “METHOD FOR THE PROPHYLAXIS OR TREATMENT OF FLUSHING” (priority 2009, published 2012).
Like-named read-outs stand apart in the source and are kept apart here.

Tests used:
PMP flushing [1] = test system: PMP flushing
Description: Three women who were referred for treatment of severe PMP flushing were included in the pilot study, after signing an informed consent. All three had frequent and severe flushing, during daytime as well as during the night. Sleep was often disturbed by flushes and sweat attacks, often forcing a change of clothes and/or bed linen. Physical examination in these patients was unremarkable and other causes of flushing were excluded. Thyroid function was normal, 24 hour urinary hydroxy-indol-acetic acid and catecholamines were within the reference range, serum tryptase was normal, and none used any medication known to induce flushing.

PMP flushing [2] = conditions: in vivo; cited from earlier work
breast cancer = breast cancer survivors; cited from earlier work

## Clc1cccc(Cl)c1N=C1NCCN1 [Clonidine]
PMP flushing [1]; Patient 1, up to 75 μg twice a day
  Effect on flushing: no beneficial effect
PMP flushing [1]; Patient 2, 50 μg twice a day
  Effect on flushing: no beneficial effect
PMP flushing [1]; Patient 3, 75 μg twice a day
  Effect on flushing: no effect whatsoever
PMP flushing [1]; all three patients, previous use
  Benefit on flushing: without experiencing a significant benefit

## NCC1(CC(=O)O)CCCCC1 [gabapentin]
PMP flushing [2]
  Effectiveness against PMP flushing relative to placebo treatment: about twice as effective as placebo treatment

## Fc1ccc([C@@H]2CCNC[C@H]2COc2ccc3c(c2)OCO3)cc1 [paroxetine]
PMP flushing [2]
  Effectiveness against PMP flushing relative to placebo treatment: about twice as effective as placebo treatment

## COc1ccc(C(CN(C)C)C2(O)CCCCC2)cc1 (stereo not shown) [venlafaxine]
PMP flushing [2]
  Effectiveness against PMP flushing relative to placebo treatment: about twice as effective as placebo treatment

## estrogen
PMP flushing [2]
  Effectiveness against PMP flushing relative to placebo treatment: four times as effective
  Reduction of PMP flush frequency: 80-90%
Breast cancer
  Increased risk of a new primary or a breast cancer recurrence: three-fold
